Test results: PMC12481576, “Barbituric Acid Derivatives as Covalent Inhibitors of Leishmania braziliensis Dihydroorotate Dehydrogenase” (Journal of Medicinal Chemistry, 2025)
Read-outs that look alike come from different tables or passages of the source.

Columns and labels:
LbDHODH [1] = target: T1, LbDHODH (Leishmania braziliensis, UniProt E9AI53); assay: biochemical
Procedure, shortened: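 Screened at 100 μM with and without 4-h enzyme preincubation; DCIP reduction during DHO oxidation read at 610 nm every 3 s for 60 s in 50 mM Tris pH 8.15, 150 mM KCl, 0.1% Triton X-100, triplicate, 5% DMSO control. kinact/KI taken as slope of kobs versus inhibitor concentration (initial linear region).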

in vitro = conditions: microsomes; for microsomal CLint at 1 μM / remaining at 5 min, 1 μM: male, CD1, mouse; for remaining at 5 min, 1 μM / remaining at 10 min, 1 µM / remaining at 20 min, 1 µM / remaining at 0.5 h, 1 µM / remaining at 1 h, 1 µM: pH 7.4, % Remaining; for remaining at 5 min, 1 μM: T=5 min; for remaining at 10 min, 1 µM / remaining at 20 min, 1 µM / remaining at 0.5 h, 1 µM / remaining at 1 h, 1 µM: mouse; for remaining at 10 min, 1 µM: T=10 min; for remaining at 20 min, 1 µM: T=20 min; for remaining at 0.5 h, 1 µM: T=30 min, 30 min; for remaining at 1 h, 1 µM: T=60 min, 60 min
LbDHODH [2] = target: T1, LbDHODH; assay: Kinact/KI determination from LbDHODH progress curves (kobs vs inhibitor concentration); assay type: biochemical
Text: The Kinact/Ki ratio is a key parameter for evaluating the potency of covalent inhibitors, as it quantitatively measures both their reactivity and affinity for the target enzyme. This parameter integrates two crucial aspects: KI, which reflects the inhibitor’s binding affinity, and Kinact, which describes the rate at which the covalent bond is formed. […] Therefore, this ratio is essential for ranking covalent inhibitors, optimizing their potency, and guiding structure-based drug design.
The experiments were performed in a 96-well microplate reader (SpectraMax Plus 384, Molecular Devices, USA), containing the […] of the buffer 60 mM DCIP, 50 mM Tris pH 8.15, 150 mM KCl, 0.1% Triton X-100, 50 μM DHO and 10 μM of LbDHODH at 165 nM. The reaction was monitored every 3 s at 610 nm over a period of 60 s, in triplicate, for the control and each concentration of the inhibitor. All assays were performed without incubation (0h) and with 4-h preincubation of the inhibitor with LbDHODH, using 5% DMSO (v/v) as control. […] To determine the IC50 values, the activity percentage data were fitted as a function of the concentration logarithm by nonlinear regression analysis (variable hillslope) using Prism 9.0 software (GraphPad Software, USA). […] The resulting kobs values were plotted as a function of inhibitor concentration, and the data in the initial linear region was fit to determine the slope, which is kinact/KI. All regressions were performed with GraphPad Prism 9.

[3] = IC50 0 h, LbDHODH, without preincubation
[4] = IC50 4 h, LbDHODH, 4-h preincubation
[5] = read-out: Single dose (0h) % activity
[6] = read-out: Single dose (4h) % activity
[7] = n=1, mouse liver microsomes, n=1
[8] = n=2, mouse liver microsomes, n=2
[9] = pH 7.4, mouse liver microsomes CLint, app, mouse liver microsomes, NADPH, 1 μM
[10] = 0 h, pH 8.15, read-out: LbDHODH Activity±SD (%)
[11] = 4 h, pH 8.15, read-out: LbDHODH Activity±SD (%)

T1 sequence (E9AI53 entry or part of it): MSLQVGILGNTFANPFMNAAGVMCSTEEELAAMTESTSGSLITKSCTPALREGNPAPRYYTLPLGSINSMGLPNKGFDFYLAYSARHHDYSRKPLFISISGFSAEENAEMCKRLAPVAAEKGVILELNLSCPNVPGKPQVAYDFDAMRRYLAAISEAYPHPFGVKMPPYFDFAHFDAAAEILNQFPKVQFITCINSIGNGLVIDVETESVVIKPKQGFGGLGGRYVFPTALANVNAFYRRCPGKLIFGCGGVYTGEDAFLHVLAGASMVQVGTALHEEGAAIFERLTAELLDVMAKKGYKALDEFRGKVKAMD

O=C1NC(=O)C(=Cc2ccc(-c3ccccc3F)[nH]2)C(=O)N1 [2h, 5-((5-(2-Fluorophenyl)-1H-pyrrol-2-yl)methylene)pyrimidine-2,4,6(1H,3H,5H)-trione]
IC50 (LbDHODH [1]; [3]): > 100 µM | IC50 (LbDHODH [1]; [4]): > 100 µM | IC50 4 h (LbDHODH [1]; LbDHODH, 4-h preincubation): inactive | activity at 100 µM (LbDHODH [1]; [5]): 90 ± 10% | activity at 100 µM (LbDHODH [1]; [6]): 60 ± 10% | microsomal CLint at 1 μM (in vitro; pH 7.4): > 578 µL/min/mg | remaining at 5 min, 1 μM (in vitro; [7]): 5.9% | remaining at 5 min, 1 μM (in vitro; [8]): 5.1% | microsomal CLint at 1 μM (in vitro; [9]): > 578 µL/min/mg | remaining at 10 min, 1 µM (in vitro; [7]): 1.7% | remaining at 10 min, 1 µM (in vitro; [8]): 1.7% | remaining at 20 min, 1 µM (in vitro; [7]): 0.7% | remaining at 20 min, 1 µM (in vitro; [8]): 0.7% | remaining at 0.5 h, 1 µM (in vitro; [7]): 0.554% | remaining at 0.5 h, 1 µM (in vitro; [8]): 0.554% | remaining at 1 h, 1 µM (in vitro; [7]): 0.158% | remaining at 1 h, 1 µM (in vitro; [8]): 0.16%

O=C1NC(=O)C(=Cc2ccc(N3CCOCC3)cc2[N+](=O)[O-])C(=O)N1 [2e, 5-(4-Morpholino-2-nitrobenzylidene)pyrimidine-2,4,6(1H,3H,5H)-trione]
activity at 0.048828 µM (LbDHODH [1]; [10]): 87 ± 1% | activity at 0.0976562 µM (LbDHODH [1]; [10]): 92 ± 1% | activity at 0.195312 µM (LbDHODH [1]; [10]): 94 ± 1% | activity at 0.390625 µM (LbDHODH [1]; [10]): 79 ± 3% | activity at 0.78125 µM (LbDHODH [1]; [10]): 83 ± 4% | activity at 1.5625 µM (LbDHODH [1]; [10]): 71 ± 2% | activity at 3.125 µM (LbDHODH [1]; [10]): 67 ± 4% | activity at 6.25 µM (LbDHODH [1]; [10]): 45 ± 3% | activity at 12.5 µM (LbDHODH [1]; [10]): 31 ± 4% | activity at 25 µM (LbDHODH [1]; [10]): 22 ± 1% | activity at 50 µM (LbDHODH [1]; [10]): 7 ± 5% | activity at 100 µM (LbDHODH [1]; [10]): 10 ± 1% | activity at 0.048828 µM (LbDHODH [1]; [11]): 104 ± 4% | activity at 0.0976562 µM (LbDHODH [1]; [11]): 107 ± 3% | activity at 0.195312 µM (LbDHODH [1]; [11]): 104 ± 3% | activity at 0.390625 µM (LbDHODH [1]; [11]): 106 ± 7% | activity at 0.78125 µM (LbDHODH [1]; [11]): 103 ± 1% | activity at 1.5625 µM (LbDHODH [1]; [11]): 85 ± 2% | activity at 3.125 µM (LbDHODH [1]; [11]): 87 ± 2% | activity at 6.25 µM (LbDHODH [1]; [11]): 87 ± 2% | activity at 12.5 µM (LbDHODH [1]; [11]): 60 ± 8% | activity at 25 µM (LbDHODH [1]; [11]): 67 ± 6% | activity at 50 µM (LbDHODH [1]; [11]): 35 ± 4% | activity at 100 µM (LbDHODH [1]; [11]): 13 ± 1% | IC50 (LbDHODH [1]; [3]): 5 ± 1 µM | IC50 (LbDHODH [1]; [4]): 28 ± 3 µM | activity at 100 µM (LbDHODH [1]; [5]): 10 ± 1% | activity at 100 µM (LbDHODH [1]; [6]): 7 ± 2% | inhibition at 100 µM (LbDHODH [1]; read-out: enzyme inhibition): 90 to 93% | microsomal CLint at 1 μM (in vitro; pH 7.4): < 14.4 µL/min/mg | remaining at 5 min, 1 μM (in vitro; [7]): 91.8% | remaining at 5 min, 1 μM (in vitro; [8]): 103% | microsomal CLint at 1 μM (in vitro; [9]): < 14.4 µL/min/mg | remaining at 10 min, 1 µM (in vitro; [7]): 96% | remaining at 10 min, 1 µM (in vitro; [8]): 109% | remaining at 20 min, 1 µM (in vitro; [7]): 83.8% | remaining at 20 min, 1 µM (in vitro; [8]): 99.7% | remaining at 0.5 h, 1 µM (in vitro; [7]): 85% | remaining at 0.5 h, 1 µM (in vitro; [8]): 91.7% | remaining at 1 h, 1 µM (in vitro; [7]): 87.6% | remaining at 1 h, 1 µM (in vitro; [8]): 88.8%

O=C1NC(=O)C(=Cc2ccc(O)c([N+](=O)[O-])c2)C(=O)N1 [2d, 5-(4-Hydroxy-3-nitrobenzylidene)pyrimidine-2,4,6(1H,3H,5H)-trione]
activity at 0.390625 µM (LbDHODH [1]; [10]): 99 ± 9% | activity at 0.78125 µM (LbDHODH [1]; [10]): 75 ± 6% | activity at 1.5625 µM (LbDHODH [1]; [10]): 60 ± 5% | activity at 3.125 µM (LbDHODH [1]; [10]): 46 ± 5% | activity at 6.25 µM (LbDHODH [1]; [10]): 25 ± 2% | activity at 12.5 µM (LbDHODH [1]; [10]): 13 ± 1% | activity at 25 µM (LbDHODH [1]; [10]): 11 ± 3% | activity at 50 µM (LbDHODH [1]; [10]): 8 ± 1% | activity at 100 µM (LbDHODH [1]; [10]): 6 ± 1% | activity at 200 µM (LbDHODH [1]; [10]): 9 ± 4% | activity at 400 µM (LbDHODH [1]; [10]): 6 ± 2% | activity at 0.390625 µM (LbDHODH [1]; [11]): 75 ± 7% | activity at 0.78125 µM (LbDHODH [1]; [11]): 76 ± 8% | activity at 1.5625 µM (LbDHODH [1]; [11]): 72 ± 11% | activity at 3.125 µM (LbDHODH [1]; [11]): 71 ± 6% | activity at 6.25 µM (LbDHODH [1]; [11]): 57 ± 7% | activity at 12.5 µM (LbDHODH [1]; [11]): 52 ± 6% | activity at 25 µM (LbDHODH [1]; [11]): 49 ± 7% | activity at 50 µM (LbDHODH [1]; [11]): 39 ± 7% | activity at 100 µM (LbDHODH [1]; [11]): 28 ± 3% | activity at 200 µM (LbDHODH [1]; [11]): 21 ± 8% | activity at 400 µM (LbDHODH [1]; [11]): 12 ± 4% | IC50 (LbDHODH [1]; [3]): 3 ± 1 µM | IC50 (LbDHODH [1]; [4]): 13 ± 2 µM | activity at 100 µM (LbDHODH [1]; [5]): 5 ± 2% | activity at 100 µM (LbDHODH [1]; [6]): 16 ± 3% | Kobs (LbDHODH [2]; inhibitor 0.18 µM): 0.003357 ± 0.002 s⁻¹ | Kobs (LbDHODH [2]; inhibitor 0.390625 µM): 0.003416 ± 0.002 s⁻¹ | Kobs (LbDHODH [2]; inhibitor 0.78125 µM): 0.003424 ± 0.002 s⁻¹ | Kobs (LbDHODH [2]; inhibitor 1.5625 µM): 0.003613 ± 0.002 s⁻¹ | Kobs (LbDHODH [2]; inhibitor 3.125 µM): 0.0038 ± 0.002 s⁻¹ | Kobs (LbDHODH [2]; inhibitor 6.25 µM): 0.004522 ± 0.002 s⁻¹ | Kobs (LbDHODH [2]; inhibitor 12.5 µM): 0.004748 ± 0.002 s⁻¹ | Kobs (LbDHODH [2]; inhibitor 25 µM): 0.005571 ± 0.002 s⁻¹ | Kobs (LbDHODH [2]; inhibitor 100 µM): 0.01122 ± 0.001 s⁻¹ | Kobs (LbDHODH [2]; inhibitor 200 µM): 0.01796 ± 0.003 s⁻¹ | kinact/KI (LbDHODH [2]; slope of kobs vs inhibitor concentration): 73 M⁻¹ s⁻¹
